Structures are written as SMILES.

Results on four compounds are retold here after patent US20230157939A1, “PERSONAL CARE COMPOSITIONS WITH ENHANCED SOLUBILITY ACTIVES” (Conopco, Inc., d/b/a UNILEVER, priority 2020, published 2023).

Data set [1] is described as follows: Odor and H2S generation (H2S test strip) of cystine / cystine derivative samples. Format: physicochemical. As to conditions: summary of the Examples; monitored as H2S. Here is the method: Evaluation of Cystine Crystallization and Odor in the Presence of Cystine Derivatives Samples for cystine crystallization evaluation were prepared by dissolving cystine (10 mg) alone or in combination with NDAC (N,N′-diacetyl-L-cystine) (55 mg), NACys (N-acetyl-L-cysteine) (28 mg) or L-cystine diethyl ester dihydrochloride (DEC) (62 mg) in 0.775M NaOH (1 ml) or Epilife™ cell culture media (60 uM calcium chloride, HEPES/bicarbonate buffered; Thermofisher Scientific) (1 ml) and the pH adjusted to 7.0 by adding HCl (12.1M). A hydrogen sulfide (H2S) test strip (Sigma) was placed above the sample solution and the samples sealed. Visual appearance, odor and H2S generation (unchanged test strip white color=no H2S generated; changed test strip brown/black color=H2S generated) were monitored up to 4 months and recorded.

For data set [2] the following is noted: according to Zhu, et al.; cited from earlier work.
For data set [3] the following is noted: at 25° C.; cited from earlier work.

`CCOC(=O)[C@@H](N)CSSC[C@H](N)C(=O)OCC` [DEC, L-Cystine diethyl ester]: the “odor of the cystine derivative, in words” value in data set [1] is “unpleasant sulfurous odor”.
Take `CC(=O)N[C@@H](CS)C(=O)O` [NACys, N-Acetyl-L-Cysteine]: in data set [1], the “odor of the cystine derivative, in words” value is recorded as “upleasant sulfurous odor”.
In the case of `CC(=O)N[C@@H](CSSC[C@H](NC(C)=O)C(=O)O)C(=O)O` [NDAC, N,N′-Diacetyl-L-Cystine], the “inhibitor of cystine crystal growth” value in data set [2] is given as “not effective”.
In the case of `N[C@@H](CSSC[C@H](N)C(=O)O)C(=O)O` [cystine, L-Cystine], in data set [3], the “solubility of cystine in water” value was 112 µg/mL.
